Where two headings read alike, the source gives them in different places.

Series [1] concerns the target T1, human serotonin transporters (Homo sapiens, UniProt P31645).
T1 construct: expressed in transfected cells; host or cells: HEK-293 (HEK-hSERT), membrane homogenates
As to the kind of experiment: Serotonin Transporter Binding Assay. The following applies: HEK-hSERT cell membranes, 1 nM [3H]-citalopram, Cheng and Prusoff. The essentials:
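Displacement of 1 nM [^3H]-citalopram (1 hr, 25° C, Tris pH 7.4 with NaCl/KCl) from membranes of HEK-293 cells stably expressing human SERT, with bound ligand read after filtration. 10 μM fluoxetine defined non-specific binding. Ki values were derived via Cheng–Prusoff from IC50 displacement-curve midpoints.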

The target in series [2] is T2, recombinant human dopamine D2L receptors (Homo sapiens, UniProt P14416).
T2 construct: expressed in transfected cells; host or cells: HEK-293 (HEK-D2L), membrane homogenates
T2 sequence (P14416 whole entry): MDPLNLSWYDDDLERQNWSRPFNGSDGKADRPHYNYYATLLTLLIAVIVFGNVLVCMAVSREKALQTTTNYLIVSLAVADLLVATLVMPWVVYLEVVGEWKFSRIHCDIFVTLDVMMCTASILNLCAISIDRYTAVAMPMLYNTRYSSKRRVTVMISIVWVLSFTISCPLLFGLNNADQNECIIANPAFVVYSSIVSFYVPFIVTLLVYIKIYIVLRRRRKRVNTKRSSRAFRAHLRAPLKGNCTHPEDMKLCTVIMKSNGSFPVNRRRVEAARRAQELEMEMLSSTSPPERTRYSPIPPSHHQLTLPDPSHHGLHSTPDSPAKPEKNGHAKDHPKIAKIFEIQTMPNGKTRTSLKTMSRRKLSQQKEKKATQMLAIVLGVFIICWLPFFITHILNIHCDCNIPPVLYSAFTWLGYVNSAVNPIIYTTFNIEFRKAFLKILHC
The series can be described thus: Dopamine Binding Assay. The following applies: HEK-D2L cell membranes, 150 pM [3H]-spiperone, Cheng and Prusoff. The gist of the method:
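Competition binding on HEK-293 membranes stably expressing human D2L (~5 μg protein) with 150 pM [3H]-spiperone, 1.5 h at 22 °C in 50 mM Tris pH 7.4, 1 mM EDTA, 6 mM MgCl2. Filtration read-out; non-specific binding defined with 2 μM (+)butaclamol, Ki by Cheng-Prusoff.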

T1 sequence (P31645 whole entry): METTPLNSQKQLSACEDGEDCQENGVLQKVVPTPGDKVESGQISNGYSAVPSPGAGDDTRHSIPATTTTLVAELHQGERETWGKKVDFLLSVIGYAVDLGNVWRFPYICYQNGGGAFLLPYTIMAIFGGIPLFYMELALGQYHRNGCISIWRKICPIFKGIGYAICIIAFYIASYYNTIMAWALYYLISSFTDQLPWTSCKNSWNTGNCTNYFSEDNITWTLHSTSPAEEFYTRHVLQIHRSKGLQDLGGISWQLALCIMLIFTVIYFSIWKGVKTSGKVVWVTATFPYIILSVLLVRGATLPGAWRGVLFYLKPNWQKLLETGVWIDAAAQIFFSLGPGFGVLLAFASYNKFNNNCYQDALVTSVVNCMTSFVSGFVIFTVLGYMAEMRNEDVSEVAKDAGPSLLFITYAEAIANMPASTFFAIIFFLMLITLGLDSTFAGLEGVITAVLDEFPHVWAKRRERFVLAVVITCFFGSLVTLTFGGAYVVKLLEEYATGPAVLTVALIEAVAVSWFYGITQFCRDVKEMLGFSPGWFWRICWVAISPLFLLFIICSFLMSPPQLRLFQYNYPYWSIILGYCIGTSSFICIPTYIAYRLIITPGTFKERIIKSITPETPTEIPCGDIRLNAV

In turn, `CN(C)C[C@H]1C[C@@H]1c1c[nH]c2ccc(F)cc12` [Example 4, (1S,2S)-trans-1-(N,N-dimethylaminomethyl)-2-[5-fluoroindol-3-yl]-cyclopropane] yielded a melting point of 88 to 90 °C. The molecule also had an inhibition constant (Ki) in series [1] (SERT Ki (nM)) of under 1 nM. Also, in series [2], the Ki was over 1 µM.
Take `CN(C)CC1CC1c1c[nH]c2ccc(F)cc12` (single isomer, unassigned) [Example 2, Trans-1-(N,N-dimethylaminomethyl)-2-[5-fluoroindol-3-yl]cyclopropane]: the melting point is 199 to 200 °C (dec.). Moreover, the Ki in series [1] (read-out: SERT Ki) lay in the range of 1 to 10 nM. Also, in series [2], the Ki was in the range of 0.1 to 1 µM.
The like results for `CN(C)CC1CC1Cc1c[nH]c2ccc(F)cc12` (racemic) [Example 147, [2-(5-Fluoro-1H-indol-3-ylmethyl)-cyclopropylmethyl]-dimethylamine] were, in that order, 239 to 241 °C, 10 to 100 nM and 0.1 to 1 µM.
`CN(C)CC1CC1c1c[nH]c2ccc(C#N)cc12` (single isomer, unassigned) [Example 1, Trans-2-[5-Cyanoindol-3-yl]-1-(N,N-dimethylaminomethyl)cyclopropane]: the melting point lay within 120 to 121 °C. The Ki in series [1] (SERT Ki (nM)) was under 1 nM. Further, in series [2], the Ki was over 1 µM.
With `CCN(CC)C[C@@H]1C[C@H]1c1c[nH]c2ccc(C#N)cc12` (relative stereo) [Example 48], the inhibitory constant (Ki) in series [1] (read-out: SERT Ki) was in the range of 1 to 10 nM; in series [2] it was 0.1 to 1 µM.
On to `CC([C@@H]1C[C@H]1c1c[nH]c2ccc(C#N)cc12)N(C)C` (single isomer, unassigned) [Example 122A, trans-3-[2-(1-Dimethylamino-ethyl)-cyclopropyl]-1H-indole-5-carbonitrile], for which the Ki in series [1] (SERT Ki (nM)) is under 1 nM; in series [2] it was over 1 µM.
For `CC1CCN(CC2CC2c2c[nH]c3ccc(C#N)cc23)CC1` (stereo not drawn) [Example 33, trans-2-[5-Cyanoindol-3-yl]-1-(4-methyl-piperidin-1-yl-methyl)-cyclopropane], the inhibition constant Ki in series [1] (read-out: SERT Ki) was 10 to 100 nM; in series [2], 0.1 to 1 µM.
